Source: patent US9999616B2 (ZENITH EPIGENETICS LTD., priority 2013, dated 2018)

Assays:
hIL-6 mRNA = assay: Inhibition of hIL-6 mRNA transcription in LPS-stimulated U937 macrophages; format: cell-based, Human; conditions: 1 h pretreatment, LPS 3 h; for IC50: Homo sapiens, U-937, PMA-differentiated U937 cells, read-out: IL-6 activity; for IL-6 activity: PMA-differentiated U937 cells
Protocol: Human leukemic monocyte lymphoma U937 cells (CRL-1593.2) were plated at a density of 3.2×10^4 cells per well in a 96-well plate in 100 μL RPMI-1640 containing 10% FBS and penicillin/streptomycin, and differentiated into macrophages for 3 days in 60 ng/mL PMA ([…]) at 37° C. in 5% CO2 prior to the addition of compound. The cells were pretreated for 1 h with increasing concentrations of test compound in 0.1% DMSO prior to stimulation with 1 ug/mL lipopolysaccharide from Escherichia coli. Triplicate wells were used for each concentration. The cells were incubated at 37° C., 5% CO2 for 3 h before the cells were harvested. At time of harvest, media was removed and cells were rinsed in 200 μL PBS. Cells were harvested using the mRNA Catcher PLUS kit according to manufacturer's instructions. The eluted mRNA was then used in a one-step quantitative real-time PCR reaction using components of the RNA UltraSense™ One-Step Kit (Life Technologies) together with Applied Biosystems TaqMan® primer-probes for hIL-6 and Cyclophilin. Real-time PCR plates were run on a ViiA™7 real time PCR machine (Applied Biosystems), data was analyzed, normalizing the Ct values for hlL-6 to an internal control, prior to determining the fold expression of each sample, relative to the control.

Human AML MV-4-11 cells = assay: Inhibition of cell proliferation in MV4-11 cells (CellTiter Aqueous One); format: cell-based; conditions: for IC50: MV4-11, 72 h; for Cell Proliferation activity: 72 h
Protocol: MV4-11 cells (CRL-9591) were plated at a density of 5×10^4 cells per well in 96 well flat bottom plates and treated with increasing concentrations of test compound or DMSO (0.1%) in IMDM media containing 10% FBS and penicillin/streptomycin. Triplicate wells were used for each concentration and a well containing only media was used as a control. Plates were incubated at 37° C., 5% CO2 for 72 h before adding 20 µL of the CellTiter Aqueous One Solution (Promega) to each well and incubated at 37° C., 5% CO2 for an additional 3-4 h. The absorbance was read at 490 nm in a spectrophotometer and the percentage of cell titer relative to DMSO-treated cells was calculated after correcting for background by subtracting the blank well's signal. IC50 values were calculated using the GraphPad Prism software.

[1] = molecular target: Brd4 bromodomain 1 (BRD4(1)) (Homo sapiens, UniProt O60885); assay: Inhibition of tetra-acetylated histone H4 binding to Brd4 bromodomain 1, measured by FRET (HTRF); design: made in house; host or cells: E. coli BL21(DE3); conditions: 2 h at room temperature
Protocol: Proteins were cloned and overexpressed with a N-terminal 6×His tag, then purified by nickel affinity followed by size exclusion chromatography. Briefly, E. coli BL21(DE3) cells were transformed with a recombinant expression vector encoding N-terminally Nickel affinity tagged bromodomains from Brd2, Brd3, Brd4. Cell cultures were incubated at 37° C. with shaking to the appropriate density and induced overnight with IPTG. The supernatant of lysed cells was loaded onto Ni-IDA column for purification. Eluted protein was pooled, concentrated and further purified by size exclusion chromatography. Fractions representing monomeric protein were pooled, concentrated, aliquoted, and frozen at −80° C. for use in subsequent experiments.
Binding of tetra-acetylated histone H4 and BET bromodomains was confirmed by a Homogenous Time Resolved Fluorescence Resonance Energy Transfer (HTRF®) method. N-terminally His-tagged bromodomains (200 nM) and biotinylated tetra-acetylated histone H4 peptide (25-50 nM, Millipore) were incubated in the presence of Europium Cryptate-labeled streptavidin (Cisbio Cat. #610SAKLB) and XL665-labeled monoclonal anti-His antibody (Cisbio Cat. #61HISXLB) in a white 96 well microtiter plate (Greiner). For inhibition assays, serially diluted test compound was added to these reactions in a 0.2% final concentration of DMSO. Duplicate wells were used for each concentration tested. Final buffer concentrations were 30 mM HEPES pH 7.4, 30 mM NaCl, 0.3 mM CHAPS, 20 mM phosphate pH 7.0, 320 mM KF, 0.08% BSA. After a 2 h incubation at room temperature, fluorescence was measured at 665 and 620 nm with a SynergyH4 plate reader (Biotek). The binding inhibitory activity was shown by a decrease in 665 nm relative to 620 nm fluorescence. IC50 values were determined from a dose response curve.

[2] = system: c-myc in Human AML MV4-11 cells; assay: Inhibition of cMYC expression (mRNA, real-time PCR) in MV4-11 cells; format: cell-based; conditions: 3 h treatment, cMYC mRNA by real-time PCR
Protocol: MV4-11 cells (CRL-9591) were plated at a density of 2.5×10^4 cells per well in 96 well U-bottom plates and treated with increasing concentrations of test compound or DMSO (0.1%) in IMDM media containing 10% FBS and penicillin/streptomycin, and incubated for 3 h at 37′C. Triplicate wells were used for each concentration. Cells were pelleted by centrifugation and harvested using the mRNA Catcher PLUS kit according to manufacturer's instructions. The eluted mRNA isolated was then used in a one-step quantitative real-time PCR reaction, using components of the RNA UltraSense™ One-Step Kit (Life Technologies) together with Applied Biosystems TaqMan® primer-probes for cMYC and Cyclophilin. Real-time PCR plates were run on a ViiA™7 real time PCR machine (Applied Biosystems), data was analyzed, normalizing the Ct values for cMYC to an internal control, prior to determining the fold expression of each sample, relative to the control.

Cc1noc(C)c1-c1cc(NCc2cccnc2)c2nc[nH]c2c1 [Example Compound 35, 6-(3,5-dimethyl-isoxazol-4-yl)-N-(pyridin-3-ylmethyl)-1H-benzo[d] imidazol-4-amine]
IC50 (hIL-6 mRNA): 300 to 3000 nM
IC50 (Human AML MV-4-11 cells): 300 to 3000 nM
IC50 [1]: ≤ 300 nM
IC50 [2]: 300 to 3000 nM

Cc1ncsc1-c1cc(-c2c(C)noc2C)cc2[nH]cnc12 [Example Compound 26, 3,5-dimethyl-4-(4-(4-methylthiazol-5-yl)-1H-benzo[d]imidazol-6-yl)isoxazole]
IC50 (hIL-6 mRNA): ≤ 300 nM
IC50 (Human AML MV-4-11 cells): 300 to 3000 nM
IC50 [1]: ≤ 300 nM
IC50 [2]: 300 to 3000 nM

COc1ccc(Cl)cc1-c1cc(-c2c(C)noc2C)cc2[nH]c(C)nc12 [Example Compound 107, 4-(4-(5-chloro-2-methoxy-phenyl)-2-methyl-1H-benzo[d]imidazol-6-yl)-3,5-dimethyl isoxazole]
IC50 (hIL-6 mRNA): 300 to 3000 nM
IC50 (Human AML MV-4-11 cells): 300 to 3000 nM
IC50 [1]: ≤ 300 nM
IC50 [2]: 300 to 3000 nM

Cc1nc2c(-c3cccc4ccncc34)cc(-c3c(C)noc3C)cc2[nH]1 [Example Compound 110, 4-(4-(iso-quinolin-8-yl)-2-methyl-1H-benzo[d]imidazol-6-yl)-3,5-dimethyl isoxazole]
IC50 (hIL-6 mRNA): 300 to 3000 nM
IC50 (Human AML MV-4-11 cells): 300 to 3000 nM
IC50 [1]: ≤ 300 nM
IC50 [2]: 300 to 3000 nM

Cc1nc2c(-c3ccc4nncn4c3)cc(-c3c(C)noc3C)cc2[nH]1 [Example Compound 156, 4-(4-([1,2,4]triazolo [4,3-a]pyridin-6-yl)-2-methyl-1H-benzo[d]imidazol-6-yl)-3,5-dimethyl isoxazole]
IC50 (hIL-6 mRNA): 3000 to 30000 nM
IC50 (Human AML MV-4-11 cells): 3000 to 30000 nM
IC50 [1]: ≤ 300 nM
IC50 [2]: 300 to 3000 nM

COc1nccc(C)c1-c1cc(-c2c(C)noc2C)cc2[nH]c(C)nc12 [Example Compound 114, 4-(4-(2-methoxy-4-methyl-pyridin-3-yl)-2-methyl-1H-benzo[d]imidazol-6-yl)-3,5-dimethyl isoxazole]
IC50 (hIL-6 mRNA): ≤ 300 nM
IC50 [1]: 300 to 3000 nM

Cc1nc2c(NC(=O)c3ccccc3)cc(-c3c(C)noc3C)cc2[nH]1 [Example Compound 165, N-(6-(3,5-dimethyl-isoxazol-4-yl)-2-methyl-1H-benzo[d]imidazol-4-yl)benzamide]
IC50 (hIL-6 mRNA): 300 to 3000 nM
IC50 (Human AML MV-4-11 cells): 3000 to 30000 nM
IC50 [1]: 300 to 3000 nM

Cc1ccc(C#N)cc1-c1cc(-c2c(C)noc2C)cc2[nH]c(N3CCCC3)nc12 [Example Compound 215, 3-(6-(3,5-dimethylisoxazol-4-yl)-2-(pyrrolidin-1-yl)-1H-benzo[d]imidazol-4-yl)-4-methylbenzonitrile]
IC50 (hIL-6 mRNA): 300 to 3000 nM
IC50 [1]: ≤ 300 nM
IC50 [2]: ≤ 300 nM

Cc1nc2c(-c3cccc(S(C)(=O)=O)c3)cc(-c3c(C)noc3C)cc2[nH]1 [Example Compound 154, 3,5-dimethyl-4-(2-methyl-4-(3-(methyl-sulfonyl)phenyl)-1H-benzo[d]imidazol-6-yl)isoxazole]
IC50 (hIL-6 mRNA): ≤ 300 nM
IC50 (Human AML MV-4-11 cells): 300 to 3000 nM
IC50 [1]: ≤ 300 nM

Cc1noc(C)c1-c1cc(-c2c(C)noc2C)c2nccn2c1 [Example Compound 8, 4,4′-(imidazo [1,2-a]pyridine-6,8-diyl) bis(3,5-dimethylisoxazole)]
IL-6 activity (hIL-6 mRNA): Not active
Cell Proliferation activity (Human AML MV-4-11 cells): Not active
IC50 [1]: 300 to 3000 nM

Cc1nc2c(/C=C/c3ccccc3)cc(-c3c(C)noc3C)cc2[nH]1 [Example Compound 158, (E)-3,5-dimethyl-4-(2-methyl-4-styryl-1H-benzo[d]imidazol-6-yl)isoxazole]
IC50 (hIL-6 mRNA): 300 to 3000 nM
IC50 (Human AML MV-4-11 cells): 300 to 3000 nM
IC50 [1]: ≤ 300 nM

Cc1ccc(C#N)cc1-c1cc(-c2c(C)noc2C)cc2[nH]c(NCc3cccnc3)nc12 [Example Compound 211, 3-(6-(3,5-dimethyl-isoxazol-4-yl)-2-((pyridin-3-ylmethyl)amino)-1H-benzo[d]imidazol-4-yl)-4-methyl-benzonitrile]
IC50 (hIL-6 mRNA): 300 to 3000 nM
IC50 [1]: ≤ 300 nM

Cc1noc(C)c1-c1cc(Nc2ncccn2)c2nc[nH]c2c1 [Example Compound 43, 6-(3,5-dimethyl-isoxazol-4-yl)-N-(pyrimidin-2-yl)-1H-benzo[d] imidazol-4-amine]
IC50 (hIL-6 mRNA): 300 to 3000 nM
IC50 (Human AML MV-4-11 cells): 3000 to 30000 nM
IC50 [1]: ≤ 300 nM

Cc1nc2c(N3C(=O)CCC3C)cc(-c3c(C)noc3C)cc2[nH]1 (stereo not drawn) [Example Compound 121, 1-(6-(3,5-dimethylisoxazol-4-yl)-2-methyl-1H-benzo[d]imidazol-4-yl)-5-methylpyrrolidin-2-one]
IC50 (hIL-6 mRNA): 300 to 3000 nM
Cell Proliferation activity (Human AML MV-4-11 cells): Not active
IC50 [1]: 300 to 3000 nM

Cc1noc(C)c1-c1cc(-c2cncnc2)c2nc[nH]c2c1 [Example Compound 22, 3,5-dimethyl-4-(4-(pyrimidin-5-yl)-1H-benzo[d]imidazol-6-yi)isoxazole]
IC50 (hIL-6 mRNA): 300 to 3000 nM
Cell Proliferation activity (Human AML MV-4-11 cells): Not active
IC50 [1]: 300 to 3000 nM

Cc1nc2c(Oc3cc(C(=O)O)ccc3C)cc(-c3c(C)noc3C)cc2[nH]1 [Example Compound 175, 3-((6-(3,5-dimethylisoxazol-4-yl)-2-methyl-1H-benzo[d]imidazol-4-yl)oxy)-4-methylbenzoic acid]
IL-6 activity (hIL-6 mRNA): Not active
Cell Proliferation activity (Human AML MV-4-11 cells): Not active
IC50 [1]: ≤ 300 nM

Cc1noc(C)c1-c1cc(-c2cccc(C(N)=O)c2C)c2nc(N3CCOCC3)[nH]c2c1 [Example Compound 208, 3-(6-(3,5-dimethyl-isoxazol-4-yl)-2-morpholino-1H-benzo[d]imidazol-4-yl)-2-methyl benzamide]
IC50 (hIL-6 mRNA): ≤ 300 nM
IC50 [1]: ≤ 300 nM

Cc1noc(C)c1-c1cc(-c2c(C)nn(C)c2C)c2nc(N3CCCC3)[nH]c2c1 [Example Compound 213, 3,5-dimethyl-4-(2-(pyrrolidin-1-yl)-4-(1,3,5-trimethyl-1H-pyrazol-4-yl)-1H-benzo[d]imidazol-6-yl)isoxazole]
IC50 (hIL-6 mRNA): ≤ 300 nM
IC50 [1]: ≤ 300 nM

Cc1noc(C)c1-c1cc(-c2cccc(C#N)c2C)c2nc(NC3CCN(C)CC3)[nH]c2c1 [Example Compound 216, 3-(6-(3,5-dimethyl-isoxazol-4-yl)-2-((1-methyl-piperidin-4-yl)amino)-1H-benzo[d]imidazol-4-yl)-2-methyl benzonitrile]
IC50 (hIL-6 mRNA): ≤ 300 nM
IC50 [1]: ≤ 300 nM
IC50 [2]: 300 to 3000 nM

Cc1noc(C)c1-c1cc(-c2c(C)nn(C)c2C)c2nc(NCc3ccccc3)[nH]c2c1 [Example Compound 212, N-benzyl-6-(3,5-dimethyl-isoxazol-4-yl)-4-(1,3,5-trimethyl-1H-pyrazol-4-yl)-1H-benzo[d] imidazol-2-amine]
IC50 (hIL-6 mRNA): ≤ 300 nM
IC50 [1]: ≤ 300 nM
